# How the values were obtained:
# Format in all cases: binding
# [1] = biological target: T1, ~100 representative kinases (Homo sapiens, UniProt P15735); test: DSF 100 kinase selectivity screen; details: protein PHKG2; average of three replicates;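 note: compound tested at 20 µM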
# T1 construct: Recombinant protein kinase domains with a concentration of 2 μM
# T1 sequence (P15735 1-406): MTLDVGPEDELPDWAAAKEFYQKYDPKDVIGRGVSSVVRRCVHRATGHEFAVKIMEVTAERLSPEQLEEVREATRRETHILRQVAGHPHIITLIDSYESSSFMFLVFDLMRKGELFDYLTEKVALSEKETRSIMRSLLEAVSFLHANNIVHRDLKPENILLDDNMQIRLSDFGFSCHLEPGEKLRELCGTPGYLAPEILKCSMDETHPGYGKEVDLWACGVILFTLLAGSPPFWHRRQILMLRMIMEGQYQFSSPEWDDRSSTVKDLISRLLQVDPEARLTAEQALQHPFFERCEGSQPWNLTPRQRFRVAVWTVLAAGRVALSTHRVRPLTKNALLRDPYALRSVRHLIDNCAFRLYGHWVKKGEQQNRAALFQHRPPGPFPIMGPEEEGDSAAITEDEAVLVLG
# Method: (§1) Recombinant protein kinase domains with a concentration of 2 μM were mixed with a 20 μM compound solution in dimethyl sulfoxide (DMSO), 20 mM Hepes (pH 7.5), and 500 mM NaCl. SYPRO Orange (5000×, Invitrogen) was added as a fluorescence probe (1μl/ml). Subsequently, temperature-dependent protein unfolding profiles were measured using the QuantStudio 5 realtime PCR machine (Thermo Fisher Scientific, Waltham, MA, USA). […] The temperature was raised with a step rate of 3°C/min. […] Differences in melting temperature are given as ΔTm values in degrees Celsius. […]
# [2] = biological target: T2, ~100 representative kinases (Homo sapiens, UniProt Q14680); test: DSF 100 kinase selectivity screen; details: protein MELK; average of three replicates;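 note: compound tested at 20 µM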
# T2 construct: Recombinant protein kinase domains with a concentration of 2 μM
# Method: as §1
# [3] = biological target: T3, ~100 representative kinases (Homo sapiens, UniProt Q13627); test: DSF 100 kinase selectivity screen; details: Protein DYRK1A; average of three replicates;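 note: compound tested at 20 µM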
# T3 construct: Recombinant protein kinase domains with a concentration of 2 μM
# Method: as §1
# [4] = biological target: T4, ~100 representative kinases (Homo sapiens, UniProt P28482); test: DSF 100 kinase selectivity screen; details: protein MAPK1; average of three replicates;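 note: compound tested at 20 µM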
# T4 construct: Recombinant protein kinase domains with a concentration of 2 μM
# Method: as §1
# [5] = biological target: T5, ~100 representative kinases (Homo sapiens, UniProt O15264); test: DSF 100 kinase selectivity screen; details: protein MAPK13; average of three replicates;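 note: compound tested at 20 µM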
# T5 construct: Recombinant protein kinase domains with a concentration of 2 μM
# T5 sequence (O15264 1-365): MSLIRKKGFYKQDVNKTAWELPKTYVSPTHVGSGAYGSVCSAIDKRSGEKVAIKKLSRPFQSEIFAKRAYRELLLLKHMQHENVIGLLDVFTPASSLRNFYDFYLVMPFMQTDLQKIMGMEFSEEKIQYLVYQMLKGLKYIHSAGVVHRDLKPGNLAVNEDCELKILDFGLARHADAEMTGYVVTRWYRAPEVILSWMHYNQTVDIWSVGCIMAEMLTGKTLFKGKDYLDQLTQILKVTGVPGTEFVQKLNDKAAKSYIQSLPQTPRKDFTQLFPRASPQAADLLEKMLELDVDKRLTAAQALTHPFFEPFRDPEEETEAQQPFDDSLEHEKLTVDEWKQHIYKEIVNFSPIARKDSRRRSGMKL
# Method: as §1
# [6] = biological target: T6, ~100 representative kinases (Homo sapiens, UniProt Q13188); test: DSF 100 kinase selectivity screen; details: Protein STK3; DSF; average of three replicates;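 note: compound tested at 20 µM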
# T6 construct: Recombinant protein kinase domains with a concentration of 2 μM
# T6 sequence (Q13188 1-491): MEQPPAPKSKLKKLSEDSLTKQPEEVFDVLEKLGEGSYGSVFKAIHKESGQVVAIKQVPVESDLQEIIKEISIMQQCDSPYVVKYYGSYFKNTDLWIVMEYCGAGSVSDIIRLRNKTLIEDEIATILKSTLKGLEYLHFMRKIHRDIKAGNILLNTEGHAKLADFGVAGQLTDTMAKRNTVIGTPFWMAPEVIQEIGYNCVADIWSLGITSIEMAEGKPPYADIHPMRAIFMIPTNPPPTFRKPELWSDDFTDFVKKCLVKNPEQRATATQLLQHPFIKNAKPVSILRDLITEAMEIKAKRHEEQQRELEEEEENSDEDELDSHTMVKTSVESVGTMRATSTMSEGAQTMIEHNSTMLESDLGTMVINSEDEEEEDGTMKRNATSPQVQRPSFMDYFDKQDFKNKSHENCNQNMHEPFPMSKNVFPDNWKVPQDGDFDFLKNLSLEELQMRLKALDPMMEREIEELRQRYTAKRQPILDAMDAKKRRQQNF
# Method: as §1
# [7] = biological target: T7, ~100 representative kinases (Homo sapiens, UniProt Q2M2I8); test: DSF 100 kinase selectivity screen; details: Protein AAK1; average of three replicates
# T7 construct: Recombinant protein kinase domains with a concentration of 2 μM
# Method: as §1
# LRRK2^KW = biological target: T8, LRRK2^KW (Homo sapiens, UniProt Q5S007); test: DSF thermal stabilization of LRRK2^KW; details: DSF, LRRK2^KW, 10 μM inhibitor
# T8 construct: LRRK2 R1847 to E2527; His6-Z-tag (TEV cleavable) (N, cleaved yes); host or cells: Sf9 insect cells (baculovirus)
# T8 sequence (Q5S007 1847-2527): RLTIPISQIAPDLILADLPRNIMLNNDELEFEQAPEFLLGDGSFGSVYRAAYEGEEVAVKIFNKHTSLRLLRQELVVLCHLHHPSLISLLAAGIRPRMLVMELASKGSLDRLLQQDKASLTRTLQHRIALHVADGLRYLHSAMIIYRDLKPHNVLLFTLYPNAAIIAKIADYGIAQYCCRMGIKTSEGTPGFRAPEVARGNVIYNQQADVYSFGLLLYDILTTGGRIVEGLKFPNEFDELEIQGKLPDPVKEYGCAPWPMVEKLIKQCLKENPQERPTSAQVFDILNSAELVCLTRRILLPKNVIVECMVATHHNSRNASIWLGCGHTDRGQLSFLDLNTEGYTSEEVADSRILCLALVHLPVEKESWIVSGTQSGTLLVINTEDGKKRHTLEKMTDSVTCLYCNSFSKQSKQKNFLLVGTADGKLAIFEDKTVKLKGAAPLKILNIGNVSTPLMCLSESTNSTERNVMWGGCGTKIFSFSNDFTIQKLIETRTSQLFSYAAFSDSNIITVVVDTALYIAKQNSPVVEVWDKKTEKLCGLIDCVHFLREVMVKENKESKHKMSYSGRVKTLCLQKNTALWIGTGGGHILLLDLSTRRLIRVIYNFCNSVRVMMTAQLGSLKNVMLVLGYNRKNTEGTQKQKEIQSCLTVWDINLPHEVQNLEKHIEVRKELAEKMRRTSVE
# Outline: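 DSF on 4 μM LRRK2^KW in 20 mM Hepes pH 7.4, 150 mM NaCl, 0.5 mM TCEP, 0.5% glycerol, 20 μM GDP, 2.5 mM MgCl2 with SYPRO Orange; inhibitor at 10 μM. Tm was taken as the minimum of the first derivative of fluorescence versus temperature, relative to control.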
# T4 sequence (P28482 whole entry, the tested form may be a part): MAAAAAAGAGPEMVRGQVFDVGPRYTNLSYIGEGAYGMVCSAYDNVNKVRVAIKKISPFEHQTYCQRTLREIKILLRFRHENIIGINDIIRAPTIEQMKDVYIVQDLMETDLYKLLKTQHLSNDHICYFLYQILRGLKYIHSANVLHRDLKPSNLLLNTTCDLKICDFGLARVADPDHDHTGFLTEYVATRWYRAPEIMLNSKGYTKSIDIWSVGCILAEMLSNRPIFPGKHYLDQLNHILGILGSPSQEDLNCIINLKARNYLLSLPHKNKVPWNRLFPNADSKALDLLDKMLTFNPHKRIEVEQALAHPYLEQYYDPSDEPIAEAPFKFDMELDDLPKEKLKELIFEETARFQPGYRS
# T2 sequence (Q14680 whole entry, the tested form may be a part): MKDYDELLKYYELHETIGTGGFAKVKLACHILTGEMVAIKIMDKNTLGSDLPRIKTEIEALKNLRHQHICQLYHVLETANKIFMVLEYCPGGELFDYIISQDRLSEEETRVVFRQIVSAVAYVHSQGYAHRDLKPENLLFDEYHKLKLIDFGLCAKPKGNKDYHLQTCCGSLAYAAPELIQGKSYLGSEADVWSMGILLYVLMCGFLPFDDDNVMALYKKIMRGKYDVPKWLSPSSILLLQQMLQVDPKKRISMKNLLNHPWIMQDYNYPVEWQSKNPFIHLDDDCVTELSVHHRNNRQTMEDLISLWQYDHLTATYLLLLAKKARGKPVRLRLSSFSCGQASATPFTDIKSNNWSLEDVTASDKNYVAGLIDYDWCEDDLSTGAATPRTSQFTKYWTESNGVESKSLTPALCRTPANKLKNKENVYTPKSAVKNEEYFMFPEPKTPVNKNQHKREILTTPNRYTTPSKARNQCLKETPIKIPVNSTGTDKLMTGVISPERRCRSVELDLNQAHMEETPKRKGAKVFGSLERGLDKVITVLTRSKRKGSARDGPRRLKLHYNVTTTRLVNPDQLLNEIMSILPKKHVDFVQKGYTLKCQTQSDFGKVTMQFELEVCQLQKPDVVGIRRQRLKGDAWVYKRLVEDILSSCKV
# T7 sequence (Q2M2I8 whole entry, the tested form may be a part): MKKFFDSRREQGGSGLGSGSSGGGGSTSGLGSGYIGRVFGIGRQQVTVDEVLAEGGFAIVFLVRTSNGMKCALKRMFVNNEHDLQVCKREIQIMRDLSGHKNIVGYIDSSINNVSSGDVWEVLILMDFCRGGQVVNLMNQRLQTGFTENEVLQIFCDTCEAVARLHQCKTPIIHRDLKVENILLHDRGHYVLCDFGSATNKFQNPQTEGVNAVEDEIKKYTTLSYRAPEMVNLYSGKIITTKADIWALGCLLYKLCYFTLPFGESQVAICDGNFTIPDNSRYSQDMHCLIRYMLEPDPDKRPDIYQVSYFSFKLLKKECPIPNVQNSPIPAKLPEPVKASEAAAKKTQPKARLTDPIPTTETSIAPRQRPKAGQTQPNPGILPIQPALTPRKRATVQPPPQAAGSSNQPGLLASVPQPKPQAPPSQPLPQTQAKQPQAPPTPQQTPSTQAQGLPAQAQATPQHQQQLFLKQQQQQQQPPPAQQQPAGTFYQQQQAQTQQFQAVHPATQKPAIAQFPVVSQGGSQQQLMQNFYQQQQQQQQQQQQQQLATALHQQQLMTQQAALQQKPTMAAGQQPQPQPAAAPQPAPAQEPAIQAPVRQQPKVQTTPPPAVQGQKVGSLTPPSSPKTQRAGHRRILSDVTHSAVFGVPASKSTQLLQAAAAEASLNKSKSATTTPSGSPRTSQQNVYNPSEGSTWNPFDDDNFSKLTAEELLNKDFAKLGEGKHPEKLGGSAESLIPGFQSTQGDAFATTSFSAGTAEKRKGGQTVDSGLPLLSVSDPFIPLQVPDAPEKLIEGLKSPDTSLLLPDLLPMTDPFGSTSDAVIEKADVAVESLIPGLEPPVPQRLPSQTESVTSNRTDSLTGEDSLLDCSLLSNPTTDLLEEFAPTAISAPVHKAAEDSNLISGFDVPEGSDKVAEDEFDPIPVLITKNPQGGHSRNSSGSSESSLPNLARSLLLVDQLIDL
Structure (SMILES),dTm [1],dTm [2],dTm [3],dTm [4],dTm [5],dTm [6],dTm [7],∆Tm (K) (LRRK2^KW),∆Tm (K) (LRRK2^KW; listed as 30 (RN277)),∆Tm (K) (LRRK2^KW; listed as RN277)
O=C(Nc1cccc(-c2c[nH]c3ncnc(N4CCOCC4)c23)c1)C1(C(=O)Nc2ccc(F)c(F)c2)CC1 [Compound 17],2.57 K,14.46 K,4.77 K,-0.20 K,9.50 K,7.68 K,3.45 K,10.3 K,,
O=C(Nc1cccc(-c2c[nH]c3ncnc(N4CCOCC4)c23)c1)C1(C(=O)Nc2ccc(F)c(Cl)c2)CC1 [Compound 18],3.01 K,13.04 K,6.34 K,0.11 K,12.04 K,8.55 K,4.45 K,12.3 K,,
O=C(Nc1cccc(-c2c[nH]c3ncnc(N4CCOCC4)c23)c1)C1(C(=O)Nc2ccc(F)c(Br)c2)CC1 [Compound 19],1.52 K,17.38 K,1.71 K,-0.09 K,11.96 K,7.71 K,3.23 K,14.0 K,,
Cc1cc(NC(=O)C2(C(=O)Nc3cccc(-c4c[nH]c5ncnc(N6CCOCC6)c45)c3)CC2)ccc1F [Compound 20],2.79 K,17.51 K,7.39 K,0.024 K,13.05 K,10.06 K,5.13 K,13.3 K,,
COc1cc(NC(=O)C2(C(=O)Nc3cccc(-c4c[nH]c5ncnc(N6CCOCC6)c45)c3)CC2)ccc1F [Compound 21],0.25 K,16.69 K,2.83 K,-0.09 K,11.57 K,8.44 K,4.69 K,9.3 K,,
CC(C)(C)c1cccc(NC(=O)C2(C(=O)Nc3cccc(-c4c[nH]c5ncnc(N6CCOCC6)c45)c3)CC2)c1 [Compound 22],-0.10 K,17.31 K,0.19 K,0.30 K,6.63 K,9.61 K,-0.91 K,12.0 K,,
O=C(Nc1cccc(-c2c[nH]c3ncnc(N4CCOCC4)c23)c1)C1(C(=O)Nc2ccc(F)cc2F)CC1 [Compound 23],0.21 K,13.56 K,1.28 K,-0.16 K,7.48 K,6.69 K,2.93 K,9.2 K,,
Cc1cc(F)ccc1NC(=O)C1(C(=O)Nc2cccc(-c3c[nH]c4ncnc(N5CCOCC5)c34)c2)CC1 [Compound 24],-0.00698 K,12.59 K,0.41 K,-0.19 K,6.95 K,6.63 K,3.04 K,8.5 K,,
O=C(Nc1cccc(-c2c[nH]c3ncnc(N4CCOCC4)c23)c1)C1(C(=O)Nc2cc(Br)c(F)cc2F)CC1 [Compound 25],0.58 K,14.53 K,0.31 K,-0.0637 K,1.39 K,4.96 K,-2.54 K,9.0 K,,
O=C(Nc1cccc(-c2c[nH]c3ncnc(N4CCOCC4)c23)c1)C1(C(=O)Nc2ccc(F)c(Br)c2F)CC1 [Compound 26],0.60 K,13.99 K,0.19 K,-0.03 K,4.55 K,5.86 K,-0.08 K,10.7 K,,
O=C(Nc1cc(F)cc(Br)c1)C1(C(=O)Nc2cccc(-c3c[nH]c4ncnc(N5CCOCC5)c34)c2)CC1 [Compound 27],0.85 K,12.52 K,-0.23 K,0.0359 K,4.18 K,2.54 K,-2.65 K,10.2 K,,
CC(C)(C)c1cc(NC(=O)Nc2cccc(-c3c[nH]c4ncnc(N5CCOCC5)c34)c2)n(-c2ccc3ncccc3c2)n1 [Compound 28],3.91 K,2.71 K,7.41 K,0.09 K,16.99 K,10.40 K,6.38 K,20.0 K,,
Cc1ccc(-n2nc(C(C)(C)C)cc2NC(=O)Nc2cccc(-c3c[nH]c4ncnc(N5CCOCC5)c34)c2)cc1 [Compound 29],2.17 K,6.41 K,2.14 K,-0.31 K,18.71 K,10.79 K,5.32 K,21.0 K,,
Cc1ccc(-n2nc(C(C)(C)C)cc2NC(=O)Nc2cccc(-c3c[nH]c4nc(Cl)nc(N5CCOCC5)c34)c2)cc1 [Compound 30],-1.15 K,2.91 K,-4.19 K,-0.99 K,9.71 K,5.14 K,0.53 K,,18.0 K,18 K
CC(=O)N1CCN(c2nc(Cl)nc3[nH]cc(-c4cccc(NC(=O)Nc5cc(C(C)(C)C)nn5-c5ccc(C)cc5)c4)c23)CC1 [Compound 31],-0.72 K,2.26 K,-1.38 K,-0.85 K,11.86 K,6.29 K,0.59 K,18.0 K,,

# Source: publication PMC12136037, “Type II kinase inhibitors that target Parkinson’s disease–associated LRRK2” (Science Advances, 2025)
